Source: patent US5110725A, “Optical probe for the cytochrome P-450 cholesterol side chain cleavage enzyme” (The United States of America as represented by the United …, priority 1991, dated 1992)

Tests used:
P-450scc enzyme [1] = molecular target: T1, P-450scc enzyme (Gallus gallus, UniProt O13254); test: Spectrofluorometry of resorufin production in mitochondrial preparations from chicken granulosa and MA-10 cells; assay type: biochemical; details: for effect of inhibitor on observed resorufin fluorescence: added to steroidogenic mitochondrial preparations incubated with the probe
T1 sequence (O13254 32-508): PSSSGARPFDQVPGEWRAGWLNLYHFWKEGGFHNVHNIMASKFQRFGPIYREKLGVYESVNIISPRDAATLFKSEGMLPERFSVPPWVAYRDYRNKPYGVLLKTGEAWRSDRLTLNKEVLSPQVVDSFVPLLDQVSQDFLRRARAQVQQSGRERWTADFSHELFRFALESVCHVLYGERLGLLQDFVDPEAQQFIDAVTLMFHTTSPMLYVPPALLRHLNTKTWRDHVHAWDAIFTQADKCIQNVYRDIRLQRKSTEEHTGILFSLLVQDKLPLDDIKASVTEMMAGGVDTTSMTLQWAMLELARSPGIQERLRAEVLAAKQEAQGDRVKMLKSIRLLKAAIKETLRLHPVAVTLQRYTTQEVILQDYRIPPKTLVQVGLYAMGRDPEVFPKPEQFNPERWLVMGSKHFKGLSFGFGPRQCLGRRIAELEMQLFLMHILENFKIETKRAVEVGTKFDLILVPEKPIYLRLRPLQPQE
Protocol: (§1) A saturated stock solution of probe 10 was made in 95% ethanol and filtered with a 0.2 μm filter to a concentration of 100 μM. Probe 10 was added at 1:50 or 1:100 dilutions to cell or mitochondria suspensions.
(§2) Cell Preparations: Granulosa cell layers were collected separately from the 5 largest preovulatory follicles of laying hens and cells were dispersed by collagenase digestion (Endocrinology 122:651-658). The cell concentration was adjusted to 1×10^6 cells/mL in modified medium 199 (no phenol red; added 25 mM HEPES, 0.35 g/L sodium bicarbonate, 100 mg/L 1-glutamate, and 1 g/L bovine serum albumin). The MA-10 cells (Endocrinology 108:88-95) were grown in RPMI-1640 medium supplemented with 15% horse serum and used three days after plating. Cell cultures of the Chinese hamster ovary (CHO) cell line were grown in spinner flasks with Ham's F-10 medium supplemented with 15% bovine calf serum. Media were obtained from Gibco BRL (Gaithersburg, Md.) and sera were obtained from HyClone Laboratories (Logan, Utah). Except where indicated all other reagents for cell preparations were obtained from Sigma Chemical Co. (St. Louis, Mo.). Cells in suspension (1×10^6 /mL) were kept on ice prior to use and at 37° C. during all incubations with probe 10.
(§3) Spectrofluorometry: Fluorescence emission measurements were obtained on a SPEX Fluorolog-II spectrofluorometer (SPEX Industries, Inc., Edison, N.J.) fitted with a thermostatted cuvette holder and interfaced to an IBM-AT computer for data collection and processing. Resorufin fluorescence was measured from 550-700 nm (8 nm slit width) with 530 nm excitation (10 nm slit width). Spectra were background-corrected by spectral subtraction of the initial (zero) time point. Samples were incubated at 37° C. during the experiment.

[2] = test system: nonsteroidogenic CHO cells; test: Spectrofluorometry with mitochondrial preparations from nonsteroidogenic CHO cells; assay type: biochemical, Chinese hamster
Protocol: as §1
as §2, with “Except where indicated all other reagents for cell preparations were obtained from Sigma Chemical Co. (St. Louis, Mo.). Cells in suspension (1×10^6 /mL) were kept on ice prior to use and at 37° C. during all incubations with probe 10.” left out
as §3, with “Spectra were background-corrected by spectral subtraction of the initial (zero) time point. Samples were incubated at 37° C. during the experiment.” left out

P-450scc enzyme [3] = test: Spectrofluorometry of probe metabolism in MA-10 and granulosa cell suspensions; assay type: cell-based
Protocol: as §1
(§4) Cell Preparations: Granulosa cell layers were collected separately from the 5 largest preovulatory follicles of laying hens and cells were dispersed by collagenase digestion (Endocrinology 122:651-658). The cell concentration was adjusted to 1×10^6 cells/mL in modified medium 199 (no phenol red; added 25 mM HEPES, 0.35 g/L sodium bicarbonate, 100 mg/L 1-glutamate, and 1 g/L bovine serum albumin). […]
as §3, with “Spectra were background-corrected by spectral subtraction of the initial (zero) time point. Samples were incubated at 37° C. during the experiment.” left out
To confirm cellular metabolism, both MA-10 and granulosa cell suspensions were incubated with varying concentrations of the probe substrate. Fluorescence emission was monitored at discrete times from 0-4 h. […] Based on the amount of fluorescence in a typical cell incubation the cumulative conversion of the probe was in the concentration range of 100-300 pM. […]

granulosa or MA-10 cells = test: Progesterone radioimmunoassay after incubation of granulosa or MA-10 cells with the probe; assay type: cell-based; details: 3-5 h incubation, 1-2 μM probe
Protocol: as §4, with “albumin). The MA-10 cells (Endocrinology 108:88-95) were grown in RPMI-1640 medium supplemented with 15% horse serum and used three days after plating. Cell cultures of the Chinese hamster ovary (CHO) cell line were grown in spinner flasks with Ham's F-10 medium supplemented with 15% bovine calf serum.” for “albumin).”
To confirm cellular metabolism, both MA-10 and granulosa cell suspensions were incubated with varying concentrations of the probe substrate. Fluorescence emission was monitored at discrete times from 0-4 h. […] Based on the amount of fluorescence in a typical cell incubation the cumulative conversion of the probe was in the concentration range of 100-300 pM. After long (3-5 h) incubations of granulosa or MA-10 cells with a high concentration (1-2 μM) of the P-450scc probe, a two-fold accumulation of progesterone over the background progesterone content of the cells was measured by specific progesterone radioimmunoassay (Endocrine Sciences, Tarzana, Calif.).

granulosa cells [4] = test: Fourier transform flow cytometry of substrate metabolism in individual granulosa cells; assay type: cell-based, laying hens
Protocol: as §2, with “Except where indicated all other reagents for cell preparations were obtained from Sigma Chemical Co. (St. Louis, Mo.). Cells in suspension (1×10^6 /mL) were kept on ice prior to use and at 37° C. during all incubations with probe 10.” left out
The Fourier transform flow cytometer was used to track the metabolism of the fluorogenic substrate in individual granulosa cells. […] Using this instrument, cellular fluorescence of the substrate is resolved from the cellular fluorescence of the product, resorufin anion, based on their unique spectral characteristics during the uptake and metabolism of the P-450scc probe.
(§5) By monitoring spectral changes in the cellular fluorescence at discrete time points from 30 min to 5 h with the FTCS-1 an increased metabolism of the substrate to the product resorufin was observed. […]

[5] = test system: nonsteroidogenic CHO cells; test: Fourier transform flow cytometry with nonsteroidogenic CHO cells; assay type: cell-based, Chinese hamster
Protocol: as §2
A single argon laser tuned to 514 nm was used to excite both the substrate and product. […]
as §5

granulosa cells [6] = test: Conventional two-laser flow cytometric analysis of P-450scc activity in granulosa cells; assay type: cell-based, laying hens; details: 37° C., 5 min to 2 h
Protocol: as §2
Uptake of the substrate (green fluorescence) plateaued at 30 minutes, presumably as the cells equilibrated with the P-450scc probe in solution.

[7] = assay type: physicochemical; details: 95% ethanol
Protocol: as §1

[8] = Fluorescence quantum efficiency relative to the resorufin anion; assay type: physicochemical; details: resorufin conjugated at C-22
Excerpt: Referring now to FIG. 2, the P-450scc probe 10 is a cholene-based steroid covalently conjugated at the C-22 position to resorufin. As a result of this conjugation the resorufin fluorescence is shifted and has a 40-fold lower quantum efficiency than the resorufin anion. Specificity of probe 10 for the P-450scc enzyme is achieved by incorporating known structural and stereochemical features to the cholene-ring for enzyme recognition. Generation of a fluorescent signal is obtained by release of the resorufin moiety 16 by the side chain cleavage enzyme.
Resorufin (7-hydroxy-3H-phenoxazin-3-one) was chosen as a fluorogenic reporter because of its advantageous spectral properties and its modest size. […] Presumably, metabolism of a resorufin ether 10 by P-450scc proceeds by hydroxylation at the C-1 position of the ether side chain, to yield a resorufin hemiacetal that undergoes cleavage to afford the highly fluorescent resorufin anion. The fluorescence signal generated by the formation of resorufin anion is a quantitative indicator of enzyme activity.

P-450scc = test: Selectivity of the probe in intact mitochondria and cells; assay type: cell-based
Protocol: as §1

Compound | resorufin production (P-450scc enzyme [1]; steroidogenic mitochondria (chicken granulosa, MA-10), 30 min to 5 h, substrate 0.01 to 2 μM) | production of fluorescence [2] | resorufin fluorescence over time (P-450scc enzyme [3]; MA-10 and granulosa cell suspensions, 0-4 h, varying probe concentrations) | cumulative conversion of the probe (P-450scc enzyme [3]; typical cell incubation, based on amount of fluorescence) [pM] | accumulation of progesterone over background progesterone content of the cells (granulosa or MA-10 cells) | average ratio of the two fluorescent components (substrate and resorufin) over time (granulosa cells [4]; 30 min to 5 h) | alignment of the cell distribution with the product resorufin (granulosa cells [4]; after 5 h) [%] | cellular fluorescence spectrum ([5]; CHO cells, 3 h incubation) | metabolism of the substrate to resorufin ([5]; nonsteroidogenic CHO cells) | product (red fluorescence) in cells during incubation (granulosa cells [6]) | time at which uptake of the substrate (green fluorescence) plateaued (granulosa cells [6]) [min] | concentration of saturated stock solution [7] [µM] | quantum efficiency lower than the resorufin anion [8] [fold] | selectivity (P-450scc) | effect of inhibitor on observed resorufin fluorescence (P-450scc enzyme [1])
C[C@H](COc1ccc2nc3ccc(=O)cc-3oc2c1)[C@H]1CC[C@H]2[C@@H]3CC=C4C[C@@H](O)CC[C@]4(C)[C@H]3CC[C@]12C [probe 10, 22-phenoxazonoxy-5-cholene-3β-ol] | resorufin production was observed | no production of fluorescence | linear increase in resorufin fluorescence | 100 to 300 | two-fold | linear increase | ~100 | remained primarily consistent with the substrate spectrum | no evidence of significant metabolism | continued to increase | 30 | 100 | 40 | selective for P-450scc activity | 
CC(=O)N1CCN(c2ccc(OCC3COC(Cn4ccnc4)(c4ccc(Cl)cc4Cl)O3)cc2)CC1 (stereo not shown) [ketoconazole] |  |  |  |  |  |  |  |  |  |  |  |  |  |  | attenuated the observed fluorescence
CCC1(c2ccc(N)cc2)CCC(=O)NC1=O (stereo not shown) [aminoglutethimide] |  |  |  |  |  |  |  |  |  |  |  |  |  |  | attenuated the observed fluorescence
